{"source": "patent US8912120B2", "about": "“Herbicidal compositions comprising 4-amino-3-chloro-5-fluoro-6-(4-chloro-2-fluoro-3-methoxyphenyl) pyridine-2-carboxylic acid or a derivative thereof and synthetic auxin herbicides” (Dow AgroSciences, LLC., priority 2012, dated 2014)", "key": {"CASOB": {"tested_on": "CASOB", "test": "Example V: postemergence herbicidal activity of mixtures in forage crops (greenhouse), CASOB", "format": "in vivo, Cassia obtusifolia (sicklepod)", "conditions": "alone, 50 gae/ha, foliar, approximately 21 days", "procedure": "(§1) Seeds or root cuttings of the desired test plant species were planted in Sun Gro MetroMix® 306 planting mixture, which typically has a pH of 6.0 to 6.8 and an organic matter content of about 30 percent, in plastic pots with a surface area of 126.6 square centimeters (cm^2). […] The plants were grown for 14-60 days in a greenhouse with an approximate 14 hour photoperiod which was maintained at approximately 28° C. during the day and 24° C. during the night.\n(§2) Spray solutions of the second herbicide or experimental compound mixtures were prepared by adding the stock solutions to the appropriate amount of dilution solution to form 12 mL spray solution with active ingredients in two-way combinations."}, "CYPRO": {"tested_on": "CYPRO", "test": "Example II: in-water applied herbicidal mixtures, weed control in transplanted paddy rice (greenhouse), CYPRO", "format": "in vivo, Cyperus rotundus (purple nutsedge)", "conditions": "in-water application", "procedure": "(§3) The prepared mud was dispensed in 365 mL aliquots into 16-ounce (oz.) non-perforated plastic pots with a surface area of 86.59 square centimeters (cm^2) leaving a headspace of 3 centimeters (cm) in each pot Mud was allowed to dry overnight prior to planting or transplanting. Rice seeds were planted in Sun Gro MetroMix® 306 planting mixture, which typically has a pH of 6.0 to 6.8 and an organic matter content of about 30 percent, in plastic plug trays. Seedlings at the second or third leaf stage of growth were transplanted into 840 mL of mud contained in 32-oz. non-perforated plastic pots with a surface area of 86.59 cm^2 4 days prior to herbicide application. […] Nutrients were added as Osmocote® (19:6:12, N:P:K^+ minor nutrients) at 2 g per 16-oz. pot and 4 g per 32-oz. pot.\n(§4) Applications were made by injecting with a pipetter appropriate amounts of the application solutions, individually and sequentially, into the aqueous layer of the paddy. Control plants were treated in the same manner with the solvent blank. Applications were made so that all treated plant material received the same concentrations of acetone and crop oil concentrate."}, "SCPMA": {"tested_on": "SCPMA", "test": "Example II: in-water applied herbicidal mixtures, transplanted paddy rice, SCPMA", "format": "in vivo", "conditions": "for Visual Weed Control (%) Obs: 20 DAA", "procedure": "as §3, §4"}, "ECHOR": {"tested_on": "ECHOR", "test": "Example II: in-water applied herbicidal mixtures, transplanted paddy rice, ECHOR", "format": "in vivo, Echinochloa oryzoides (early watergrass)", "conditions": "for Visual Weed Control (%) - 20 DAA ECHOR Obs / Visual Weed Control (%) - 22 DAA ECHOR Obs: in-water application", "procedure": "as §3, §4"}, "ECHCG [1]": {"tested_on": "ECHCG", "test": "Example II: in-water applied herbicidal mixtures, transplanted paddy rice, ECHCG", "format": "in vivo, Echinochloa crus-galli (barnyardgrass)", "conditions": "in-water application", "procedure": "as §3, §4"}, "TRFRE": {"tested_on": "TRFRE", "test": "Example V: postemergence herbicidal activity of mixtures in forage crops, TRFRE", "format": "in vivo, Trifolium repens (white clover)", "conditions": "alone, foliar, approximately 21 days", "procedure": "as §1, §2"}, "CENMA": {"tested_on": "CENMA", "test": "Example V: postemergence herbicidal activity of mixtures in forage crops, CENMA", "format": "in vivo, Centaurea maculosa (spotted knapweed)", "conditions": "alone, foliar, approximately 21 days", "procedure": "as §1, §2"}, "SINAR": {"tested_on": "SINAR", "test": "Example V: postemergence herbicidal activity of mixtures in forage crops, SINAR", "format": "in vivo, Sinapis arvensis (wild mustard)", "conditions": "alone, foliar, approximately 21 days", "procedure": "as §1, §2"}, "AMARE": {"tested_on": "AMARE", "test": "Example IV: postemergence foliar-applied herbicidal mixtures, weed control in cereal crops in the greenhouse, AMARE", "format": "in vivo, Amaranthus retroflexus (redroot pigweed)", "conditions": "alone, 20-22 days", "procedure": "as §1, with “Seeds” for “Seeds or root cuttings”, “MetroMix” for “MetroMix®”, “103.2” for “126.6”, “7-36” for “14-60”, “about 18°” for “approximately 28°”, “17°” for “24°”\n(§5) Spray solutions of the second cereal herbicide and experimental compound mixtures were prepared by adding the stock solutions to the appropriate amount of dilution solution to form 12 mL spray solution with active ingredients in two- and three-way combinations."}, "ECHCG [2]": {"tested_on": "ECHCG", "test": "Example I: postemergence foliar-applied herbicidal mixtures, direct seeded rice, ECHCG", "conditions": "16 gae/ha"}, "LEFCH": {"tested_on": "LEFCH", "test": "Example II: in-water applied herbicidal mixtures, transplanted paddy rice, LEFCH", "format": "in vivo, Leptochloa chinensis (Chinese sprangletop)", "conditions": "19 DAA; 35 gae/ha", "procedure": "as §3, §4"}, "POLCO": {"tested_on": "POLCO", "test": "Example IV: postemergence foliar-applied herbicidal mixtures, cereal crops, POLCO", "format": "in vivo, Polygonum convolvulus (wild buckwheat)", "conditions": "alone, 35 gai/ha, foliar, 20-22 days", "procedure": "as §1, with “Seeds” for “Seeds or root cuttings”, “MetroMix” for “MetroMix®”, “103.2” for “126.6”, “7-36” for “14-60”, “about 18°” for “approximately 28°”, “17°” for “24°”\nas §5"}, "BRSNN": {"tested_on": "BRSNN", "test": "Example IV: postemergence foliar-applied herbicidal mixtures, cereal crops, BRSNN", "format": "in vivo, Brassica napus (volunteer canola)", "procedure": "as §1, with “Seeds” for “Seeds or root cuttings”, “MetroMix” for “MetroMix®”, “103.2” for “126.6”, “7-36” for “14-60”, “about 18°” for “approximately 28°”, “17°” for “24°”\nas §5"}, "VIOTR": {"tested_on": "VIOTR", "test": "Example IV: postemergence foliar-applied herbicidal mixtures, cereal crops, VIOTR", "format": "in vivo, Viola tricolor (wild pansy)", "conditions": "after 20-22 days; 140 gai/ha", "procedure": "as §1, with “Seeds” for “Seeds or root cuttings”, “MetroMix” for “MetroMix®”, “103.2” for “126.6”, “7-36” for “14-60”, “about 18°” for “approximately 28°”, “17°” for “24°”\nas §5"}}, "note": "Structures can show the parent of a compound that is named as a salt."}
{"smiles": "O=C(O)COc1ccc(Cl)cc1Cl", "note": "[2,4-D Choline Salt, 2-hydroxy-N,N,N-trimethylethanaminium 2-(2,4-dichlorophenoxy)acetate, reference compound]", "values": [{"measurement": "CASOB Obs (observed value)", "setting": "CASOB", "value": 3, "unit": "%"}, {"measurement": "Visual Weed Control (%) - 20 DAA CYPRO Obs", "setting": "CYPRO; 240 gae/ha", "value": 30, "unit": "%"}, {"measurement": "Visual Weed Control (%) - 20 DAA CYPRO Obs", "setting": "CYPRO; 480 gae/ha", "value": 30, "unit": "%"}, {"measurement": "Visual Weed Control (%) - 20 DAA SCPMA Obs", "setting": "SCPMA; 240 gae/ha, in-water application", "value": 0, "unit": "%"}, {"measurement": "Visual Weed Control (%) - 20 DAA ECHOR Obs", "setting": "ECHOR; 240 gae/ha", "value": 0, "unit": "%"}, {"measurement": "Visual Weed Control (%) - 20 DAA ECHOR Obs", "setting": "ECHOR; 480 gae/ha", "value": 20, "unit": "%"}]}
{"smiles": "CCCCC(CC)COC(=O)COc1ccc(Cl)cc1Cl", "note": "(centres unmarked) [2,4-D EHE, 2-ethylhexyl 2-(2,4-dichlorophenoxy)acetate, reference compound]", "values": [{"measurement": "Visual Weed Control (%) - 22 DAA ECHCG Obs", "setting": "ECHCG [1]; 140 gae/ha", "value": 0, "unit": "%"}, {"measurement": "Visual Weed Control (%) - 22 DAA ECHCG Obs", "setting": "ECHCG [1]; 280 gae/ha", "value": 0, "unit": "%"}, {"measurement": "Visual Weed Control (%) - 22 DAA CYPRO Obs", "setting": "CYPRO; 140 gae/ha", "value": 0, "unit": "%"}, {"measurement": "Visual Weed Control (%) - 22 DAA CYPRO Obs", "setting": "CYPRO; 280 gae/ha", "value": 0, "unit": "%"}, {"measurement": "Visual Weed Control (%) - 22 DAA ECHOR Obs", "setting": "ECHOR; 140 gae/ha", "value": 0, "unit": "%"}, {"measurement": "Visual Weed Control (%) - 22 DAA ECHOR Obs", "setting": "ECHOR; 280 gae/ha", "value": 0, "unit": "%"}]}
{"smiles": "Nc1nc(C2CC2)nc(C(=O)O)c1Cl", "note": "[Aminocyclopyrachlor, 6-amino-5-chloro-2-cyclopropyl-4-pyrimidinecarboxylic acid, reference compound]", "values": [{"measurement": "TRFRE Obs (observed value)", "setting": "TRFRE; 8.75 gae/ha", "value": 45, "unit": "%"}, {"measurement": "TRFRE Obs (observed value)", "setting": "TRFRE; 17.5 gae/ha", "value": 55, "unit": "%"}, {"measurement": "CENMA Obs (observed value)", "setting": "CENMA; 8.75 gae/ha", "value": 55, "unit": "%"}, {"measurement": "CENMA Obs (observed value)", "setting": "CENMA; 17.5 gae/ha", "value": 60, "unit": "%"}, {"measurement": "SINAR Obs (observed value)", "setting": "SINAR; 8.75 gae/ha", "value": 25, "unit": "%"}, {"measurement": "SINAR Obs (observed value)", "setting": "SINAR; 17.5 gae/ha", "value": 45, "unit": "%"}]}
{"smiles": "O=C(O)c1nc(Cl)ccc1Cl", "note": "[Clopyralid, 3,6-dichloro-2-pyridinecarboxylic acid]", "values": [{"measurement": "AMARE Ob (observed value)", "setting": "AMARE; 50 gai/ha", "value": 17, "unit": "%"}]}
{"smiles": "CCCCOC(=O)c1nc(-c2ccc(Cl)c(OC)c2F)c(F)c(N)c1Cl", "note": "[Compound A n-Butyl Ester]", "values": [{"measurement": "Visual Weed Control (%) - 19 DAA ECHCG Obs", "setting": "ECHCG [2]", "value": 65, "unit": "%"}, {"measurement": "Visual Weed Control (%) Obs", "setting": "LEFCH", "value": 43, "unit": "%"}, {"measurement": "Visual Weed Control (%) Obs", "setting": "SCPMA; 35 gae/ha", "value": 0, "unit": "%"}, {"measurement": "Visual Weed Control (%) Obs", "setting": "SCPMA; 70 gae/ha", "value": 0, "unit": "%"}, {"measurement": "Visual Weed Control (%) Obs", "setting": "ECHOR; 19 DAA, 35 gae/ha", "value": 80, "unit": "%"}]}
{"smiles": "COc1c(Cl)ccc(Cl)c1C(=O)O", "note": "[Dicamba, 3,6-dichloro-2-methoxybenzoic acid]", "values": [{"measurement": "POLCO Ob (observed value)", "setting": "POLCO", "value": 13, "unit": "%"}, {"measurement": "BRSNN Ob (observed value)", "setting": "BRSNN; alone, 35 gai/ha, foliar, 20-22 days", "value": 8, "unit": "%"}, {"measurement": "AMARE Ob (observed value)", "setting": "AMARE; 35 gai/ha", "value": 53, "unit": "%"}]}
{"smiles": "C[C@@H](Oc1ccc(Cl)cc1Cl)C(=O)O", "note": "[Dichlorprop-P, (2R)-2-(2,4-dichlorophenoxy)propanoic acid]", "values": [{"measurement": "Weed Control Ob", "setting": "BRSNN; after 20-22 days, 140 gai/ha", "value": 57, "unit": "%"}, {"measurement": "Weed Control Ob", "setting": "VIOTR", "value": 27, "unit": "%"}]}
